Laboratory results published in patent US8354419B2, “Benzimidazole analogues for the treatment or prevention of flavivirus infections” (Vertex Pharmaceuticals Incorporated, priority 2009, dated 2013).
pEC50: −log10 of the molar value.

Each compound was assayed on HCV (Ib) RNA replication (assay: Cell-based luciferase reporter HCV (1b) RNA replication assay (replicon cell lines Huh-7 5.2 and ET)). Details: Hepatitis C virus, Huh-7, 96 h, HCV 1b genotype replicon, luciferase readout, 4 days incubation; read-out: EC50_1b.
Set-up: species or system Hepatitis C virus
Text: Cell-Based Luciferase Reporter HCV (Ib) RNA Replication Assay Cell Culture
Replicon cell lines Huh-7, 5.2 and ET which are derived from the Huh-7 hepatocarcinoma cell line are maintained in culture as generally described in Krieger, N; Lohmann, V; Bartenschlager, R. Enhancement of hepatitis C virus RNA replication by cell culture-adaptive mutations. J. Virol. 2001, 75, 4614-4624. The Huh-7, 5.2 cells contain the highly cell culture-adapted replicon I389luc-ubi-neo/NS3-3′/5.1 construct that carries, in addition to the neomycin gene, an integrated copy to the firefly luciferase gene (Krieger, N; Lohmann, V; Bartenschlager, R. Enhancement of hepatitis C virus RNA replication by cell culture-adaptive mutations. J. Virol. 2001, 75, 4614-4624). This cell line allows measurement of HCV RNA replication and translation by measuring luciferase activity. It has been previously shown that the luciferase activity tightly follows the replicon RNA level in these cells (Krieger, N; Lohmann, V; Bartenschlager, R. Enhancement of hepatitis C virus RNA replication by cell culture-adaptive mutations. J. Virol. 2001, 75, 4614-4624). The Huh-7, ET cell line has the same features as those mentioned for Huh-7, 5.2 cell line, except that ET cells are more robust and contain an adaptative mutation in the HCV NS4B gene instead of NS5A. Both cell lines are maintained in cultures at a sub-confluent level (<85%) as the level of replicon RNA is highest in actively proliferating cells. The culture media used for cell passaging consist of DMEM (Gibco BRL Laboratories, Mississauga, ON, Canada) supplemented with 10% foetal bovine serum with 1% penicillin/streptomycin, 1% glutamine, 1% sodium pyruvate, 1% non-essential amino acids, and 180 ug/ml of G418 final concentration. Cells are incubated at 37° C., in an atmosphere of 5% CO2 and passaged twice a week to maintain sub-confluence.
Approximately 3000 viable Huh-7, 5.2 or ET cells (100 μl) are plated per well in a white opaque 96-well microtiter plate. The cell culture media used for the assay is the same as described above except that it contains no G418 and no phenol red. After an incubation period of 3-4 hours at 37° C. in a 5% CO2 incubator, compounds (100 μl) are added at various concentrations. Cells are then further incubated for 4 days at 37° C. in a 5% CO2 incubator. Thereafter, the culture media is removed and cells are lysed by the addition of 95 μL of the luciferase buffer (luciferin substrate in buffered detergent). Cell lysates are incubated at room temperature and protected from direct light for at least 10 minutes. Plates are read for luciferase counts using a luminometer (Wallac MicroBeta Trilux, Perkin ELmer™, MA, USA).
The 50% inhibitory concentrations (IC50s) for inhibitory effect are determined from dose response curves using eleven concentrations per compound in duplicate. Curves are fitted to data points using nonlinear regression analysis, and IC50s are interpolated from the resulting curve using GraphPad Prism software, version 2.0 (GraphPad Software Inc., San Diego, Calif., USA).
Table 2 show compounds representative of the present invention and the EC50 values against the HCV 1b genotype.
Work on `COC(=O)N[C@H](C(=O)N1CCC[C@H]1c1nc2cc(-c3cc(C)c(-c4ccc5nc([C@@H]6CCCN6C(=O)[C@@H](NC(=O)OC)C(C)C)[nH]c5c4)cc3C)ccc2[nH]1)C(C)C` [Compound 14, ((S)-1-{(S)-2-[5-(4-{2-[(S)-1-((S)-2-Methoxycarbonylamino-3-methyl-butyryl)-pyrrolidin-2-yl]-1H-benzoimidazol-5-yl}-2,5-dimethyl-phenyl)-1H-benzoimidazol-2-yl]-pyrrolidine-1-carbonyl}-2-methyl-propyl)-carbamicacid methyl ester] yielded a pEC50 of at least 8.30.
Work on `COC(=O)N[C@H](C(=O)N1CCC[C@H]1c1nc2cc(-c3cnc(-c4ccc5[nH]c([C@@H]6CCCN6C(=O)[C@@H](NC(=O)OC)C(C)C)nc5c4)nc3)ccc2[nH]1)C(C)C` [Compound 15, ((S)-1-{(S)-2-[5-(5-{2-[(S)-1-((S)-2-Methoxycarbonylamino-3-methyl-butyryl)-pyrrolidin-2-yl]-1H-benzoimidazol-5-yl}-pyrimidin-2-yl)-1H-benzoimidazol-2-yl]-pyrrolidine-1-carbonyl}-2-methyl-propyl)-carbamic acid methyl ester] yielded a pEC50 of at least 8.30.
Work on `CC(C)(C)OC(=O)N1CCC[C@H]1c1nc2cc(-c3ccc(-c4ccc5[nH]c([C@@H]6CCCN6C(=O)OC(C)(C)C)nc5c4)s3)ccc2[nH]1` [Compound 16, (2S,2′S)-tert-butyl-2,2′-(5,5′-(thiophene-2,5-diyl)bis(1H-benzo[d]imidazole-5,2-diyl))dipyrrolidine-1-carboxylate] yielded a pEC50 of 5.30 to 8.30.
`COC(=O)N[C@H](C(=O)N1CCC[C@H]1c1nc2cc(-c3ccc(-c4ccc5[nH]c([C@@H]6CCCN6C(=O)[C@@H](NC(=O)OC)C(C)C)nc5c4)s3)ccc2[nH]1)C(C)C` [Compound 17] was tested, and the pEC50 was at least 8.30.
Work on `COC(=O)N[C@H](C(=O)N1CCC[C@H]1c1nc2cc(-c3csc(-c4ccc5[nH]c([C@@H]6CCCN6C(=O)[C@@H](NC(=O)OC)C(C)C)nc5c4)c3)ccc2[nH]1)C(C)C` [Compound 18, methyl N-[(1S)-1-[(2S)-2-[5-[4-[2-[(2S)-1-[(2S)-2-(methoxycarbonylamino)-3-methyl-butanoyl]pyrrolidin-2-yl]-1H-benzimidazol-5-yl]-2-thienyl]-1H-benzimidazol-2-yl]pyrrolidine-1-carbonyl]-2-methyl-propyl]carbamate] yielded a pEC50 of at least 8.30.
In the case of `COC(=O)N[C@H](C(=O)N1CCC[C@H]1c1nc2cc(-c3ncc(-c4ccc5nc([C@@H]6CCCN6C(=O)[C@@H](NC(=O)OC)C(C)C)[nH]c5c4)c(OCc4ccccc4)n3)ccc2[nH]1)C(C)C` [Compound 19, ((S)-1-{(S)-2-[5-(4-Benzyloxy-5-{2-[(S)-1-((S)-2-methoxycarbonylamino-3-methyl-butyryl)-pyrrolidin-2-yl]-1H-benzoimidazol-5-yl}-pyrimidin-2-yl)-1H-benzoimidazol-2-yl]-pyrrolidine-1-carbonyl}-2-methyl-propyl)-carbamic acid methyl ester], the pEC50 was at least 8.30.
For `COC(=O)N[C@H](C(=O)N1CCC[C@H]1c1nc2cc(-c3ncc(-c4ccc5nc([C@@H]6CCCN6C(=O)[C@@H](NC(=O)OC)C(C)C)[nH]c5c4)c(O)n3)ccc2[nH]1)C(C)C` [Compound 20, ((S)-1-{(S)-2-[5-(4-Hydroxy-5-{2-[(S)-1-((S)-2-methoxycarbonylamino-3-methyl-butyryl)-pyrrolidin-2-yl]-1H-benzoimidazol-5-yl}-pyrimidin-2-yl)-1H-benzoimidazol-2-yl]-pyrrolidine-1-carbonyl}-2-methyl-propyl)-carbamic acid methyl ester], the pEC50 was 5.30 to 8.30.
`COC(=O)N[C@H](C(=O)N1CCC[C@H]1c1nc2ccc(-c3cn(-c4ccc5nc([C@@H]6CCCN6C(=O)[C@@H](NC(=O)OC)C(C)C)[nH]c5c4)nn3)cc2[nH]1)C(C)C` [Compound 21, ((S)-1-{(S)-2-[6-(1-{2-[(S)-1-((S)-2-Methoxycarbonylamino-3-methyl-butyryl)-pyrrolidin-2-yl]-3H-benzoimidazol-5-yl}-1H-[1,2,3]triazol-4-yl)-1H-benzoimidazol-2-yl]-pyrrolidine-1-carbonyl}-2-methyl-propyl)-carbamic acid methyl ester] was tested, and the pEC50 was at least 8.30.
Compound `CC[C@@H]1CC[C@@H](c2nc3cc(-c4ccc(-c5ccc6nc([C@@H]7CC[C@@H](CC)N7C(=O)[C@@H](NC(=O)OC)C(C)C)[nH]c6c5)cc4)ccc3[nH]2)N1C(=O)[C@@H](NC(=O)OC)C(C)C` [Compound 24, ((S)-1-{(2R,5S)-2-Ethyl-5-[5-(4-{2-[(2S,5R)-5-ethyl-1-((S)-2-methoxycarbonylamino-3-methyl-butyryl)-pyrrolidin-2-yl]-1H-benzoimidazol-5-yl}-phenyl)-1H-benzoimidazol-2-yl]-pyrrolidine-1-carbonyl}-2-methyl-propyl)-carbamic acid methyl ester] has a pEC50 of at least 8.30.
`COC(=O)N[C@H](C(=O)N1C[C@H](OC(C)(C)C)C[C@H]1c1nc2cc(-c3ccc(-c4ccc5[nH]c([C@@H]6C[C@@H](OC(C)(C)C)CN6C(=O)[C@@H](NC(=O)OC)C(C)C)nc5c4)cc3)ccc2[nH]1)C(C)C` [Compound 25, ((S)-1-{(2S,4R)-4-tert-butoxy-2-[5-(4-{2-[(2S,4R)-4-tert-butoxy-1-((S)-2-methoxycarbonylamino-3-methyl-butyryl)-pyrrolidin-2-yl]-1H-benzoimidazol-5-yl}-phenyl)-1H-benzoimidazol-2-yl]-pyrrolidine-1-carbonyl}-2-methyl-propyl)-carbamic acid methyl ester] showed a pEC50 of at least 8.30.
Work on `COC(=O)N[C@H](C(=O)N1CCC[C@H]1c1nc2cc(F)c(-c3ccc(-c4cc5[nH]c([C@@H]6CCCN6C(=O)[C@@H](NC(=O)OC)C(C)C)nc5cc4F)cc3)cc2[nH]1)C(C)C` [Compound 27, Dimethyl (2S,2′S)-1,1′-((2S,2′S)-2,2′-(5,5′-(1,4-phenylene)bis(6-fluoro-1H-benzo[d]imidazole-5,2-diyl))bis(pyrrolidine-2,1-diyl))bis(3-methyl-1-oxobutane-2,1-diyl)dicarbamate] yielded a pEC50 of at least 8.30.
For `CC(C)(C)OC(=O)N1CCN(C(=O)OCc2ccccc2)[C@H](c2nc3cc(C#Cc4ccc5[nH]c([C@@H]6CCCCN6C(=O)OCc6ccccc6)nc5c4)ccc3[nH]2)C1` [Compound 28, (S)-2-{5-[2-((S)-1-Benzyloxycarbonyl-piperidin-2-yl)-1H-benzoimidazol-5-ylethynyl]-1H-benzoimidazol-2-yl}-piperazine-1,4-dicarboxylic acid 1-benzyl ester 4-tert-butyl ester], the pEC50 was 5.30 to 8.30.
For `CC(C)(C)OC(=O)N1CCN(C(=O)OCc2ccccc2)[C@H](c2nc3cc(C#Cc4ccc5[nH]c([C@@H]6CN(C(=O)OC(C)(C)C)CCN6C(=O)OCc6ccccc6)nc5c4)ccc3[nH]2)C1` [Compound 29, (S)-2-{5-[2-((S)-1-Benzyloxycarbonyl-4-tert-butyloxycarbonyl-piperazin-2-yl)-1H-benzoimidazol-5-ylethynyl]-1H-benzoimidazol-2-yl}-piperazine-1,4-dicarboxylic acid 1-benzyl ester 4-tert-butyl ester], the pEC50 was under 5.30.
Work on `O=C(OCc1ccccc1)N1CCCC[C@H]1c1nc2cc(C#Cc3ccc4nc([C@@H]5CCCCN5C(=O)OCc5ccccc5)[nH]c4c3)ccc2[nH]1` [Compound 30, (S)-2-{5-[2-((S)-1-Benzyloxycarbonyl-piperidin-2-yl)-1H-benzoimidazol-5-ylethynyl]-1H-benzoimidazol-2-yl}-piperidine-1-carboxylic acid benzyl ester] yielded a pEC50 of 5.30 to 8.30.
For `O=C(OCc1ccccc1)N1CCC[C@H]1c1nc2cc(C#Cc3ccc4[nH]c([C@@H]5CCCN5C(=O)OCc5ccccc5)nc4c3)ccc2[nH]1` [Compound 31, (S)-2-{5-[2-((S)-1-Benzyloxycarbonyl-pyrrolidin-2-yl)-1H-benzoimidazol-5-ylethynyl]-1H-benzoimidazol-2-yl}-pyrrolidine-1-carboxylic acid benzyl ester], the pEC50 was 5.30 to 8.30.
For `O=C([C@H]1CCCO1)N1CCC[C@H]1c1nc2cc(C#Cc3ccc4nc([C@@H]5CCCN5C(=O)[C@H]5CCCO5)[nH]c4c3)ccc2[nH]1` [Compound 32, [(S)-5-(5-{2-[(S)-1-((R)-tetrahydro-furan-2-carbonyl)-pyrrolidin-2-yl]-1H-benzoimidazol-5-ylethynyl}-1H-benzoimidazol-2-yl)-pyrrolidin-1-yl]-(R)-tetrahydro-furan-2-yl-methanone], the pEC50 was 5.30 to 8.30.
